Measured values taken from patent US20240150370A1, “BICYCLIC PYRIDINE DERIVATIVE” (Sumitomo Pharma Co., Ltd., priority 0001, published 2024).
Where a name gives a salt, the structure may show the parent alone. Read-outs that look alike come from different tables or passages of the source.

Assays:
[1] = molecular target: human TAAR1 receptor (Homo sapiens (Human), UniProt Q96RJ0); assay: Evaluation of agonist activity on human TAAR1 receptor (cAMP assay); type: cell-based; settings: for activation at 0.1 µM / activation at 1 µM / activation at 10 µM: CHO, 0.5 h, read-out: TAAR1 agonist activity at each concentration (%)
Chain of human TAAR1 receptor (Q96RJ0 whole entry): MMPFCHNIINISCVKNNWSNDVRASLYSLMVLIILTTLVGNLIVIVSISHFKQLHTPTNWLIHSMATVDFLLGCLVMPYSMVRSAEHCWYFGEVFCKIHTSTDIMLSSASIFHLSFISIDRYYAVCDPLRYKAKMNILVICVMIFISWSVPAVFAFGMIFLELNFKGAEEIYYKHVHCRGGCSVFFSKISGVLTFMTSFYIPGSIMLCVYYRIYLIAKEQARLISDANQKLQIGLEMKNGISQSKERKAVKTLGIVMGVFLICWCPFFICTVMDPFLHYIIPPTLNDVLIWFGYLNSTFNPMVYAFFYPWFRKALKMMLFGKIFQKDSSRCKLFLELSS
Experimental: TAAR1 is a G protein-coupled receptor that binds to G proteins (Gas), and activation of the TAAR1 receptor by agonists induces an increase in intracellular cAMP levels. Therefore, the agonist activity of the sample on the human TAAR1 receptor was evaluated using the cAMP assay method.
cAMP Hunter™ CHO-K1 TAAR1 Gs Cell Line, a cell expressing human TAAR1 receptor, was purchased. Human TAAR1-expressing CHO cells were seeded in a 96-well plate, and after culturing for 24 hours, a sample dissolved in DMSO was added and incubated at 37° C. for 30 minutes. A sample for cAMP measurement was prepared according to the cAMPHiRange kit protocol. The amount of cAMP produced by the sample was measured by time-resolved fluorescence using EnVision (excitation wavelength: 330 nm, fluorescence wavelength […]/665 nm).
Sample %=100×{(Csamp)−(Cblank)}/{(Ctyramine)−(Cblank)} • Csamp: count of sample, Ctyramine: count of 100 μM tyramine, Cblank: count of blank

[2] = molecular target: hERG channel (Homo sapiens (Human), UniProt Q12809); assay: Evaluation of hERG channel inhibitory activity (whole-cell patch clamp, hERG-CHO cells); type: cell-based; settings: autopatch clamp, read-out: hERG inhibition IC50
Chain of hERG channel (Q12809 whole entry, the tested form may be a part): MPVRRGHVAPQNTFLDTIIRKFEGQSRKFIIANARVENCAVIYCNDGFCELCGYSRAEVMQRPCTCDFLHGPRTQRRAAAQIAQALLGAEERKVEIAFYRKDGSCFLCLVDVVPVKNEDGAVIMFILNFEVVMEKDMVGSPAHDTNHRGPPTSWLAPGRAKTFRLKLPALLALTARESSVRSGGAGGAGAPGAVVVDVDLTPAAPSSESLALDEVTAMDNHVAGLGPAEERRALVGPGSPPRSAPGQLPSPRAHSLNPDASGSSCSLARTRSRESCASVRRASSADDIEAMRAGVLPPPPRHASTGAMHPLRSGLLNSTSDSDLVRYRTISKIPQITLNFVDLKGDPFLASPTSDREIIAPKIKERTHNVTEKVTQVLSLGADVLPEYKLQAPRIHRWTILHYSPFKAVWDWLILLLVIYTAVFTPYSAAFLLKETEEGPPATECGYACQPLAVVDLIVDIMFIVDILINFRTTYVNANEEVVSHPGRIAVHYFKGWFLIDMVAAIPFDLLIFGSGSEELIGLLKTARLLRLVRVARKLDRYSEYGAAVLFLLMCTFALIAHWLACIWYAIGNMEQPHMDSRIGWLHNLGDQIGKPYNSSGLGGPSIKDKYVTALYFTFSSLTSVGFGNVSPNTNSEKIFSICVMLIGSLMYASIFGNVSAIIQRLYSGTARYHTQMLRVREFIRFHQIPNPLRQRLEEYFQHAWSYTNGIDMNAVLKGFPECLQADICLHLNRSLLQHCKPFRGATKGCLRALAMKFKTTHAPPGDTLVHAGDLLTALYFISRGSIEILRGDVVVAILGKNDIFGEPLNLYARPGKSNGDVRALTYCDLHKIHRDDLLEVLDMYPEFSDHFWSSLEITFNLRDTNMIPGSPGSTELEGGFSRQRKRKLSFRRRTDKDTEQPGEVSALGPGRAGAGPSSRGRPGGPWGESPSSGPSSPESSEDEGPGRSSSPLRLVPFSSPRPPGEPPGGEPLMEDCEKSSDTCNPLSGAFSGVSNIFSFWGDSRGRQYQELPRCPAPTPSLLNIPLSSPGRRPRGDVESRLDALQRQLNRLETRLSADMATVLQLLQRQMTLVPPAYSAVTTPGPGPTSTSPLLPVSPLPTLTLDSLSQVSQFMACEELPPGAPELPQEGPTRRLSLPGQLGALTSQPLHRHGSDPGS

[3] = 100 nM, cAMP in human TAAR1-expressing CHO cells, relative to 100 μM tyramine
[4] = 1000 nM, cAMP in human TAAR1-expressing CHO cells, relative to 100 μM tyramine
[5] = 10000 nM, cAMP in human TAAR1-expressing CHO cells, relative to 100 μM tyramine

## C[C@@H]1C[C@@H](CN)c2ncccc2S1 (racemic) [Example 14]
[1]; [3]
  activation at 0.1 µM: 10%
[1]; [4]
  activation at 1 µM: 47%
[1]; [5]
  activation at 10 µM: 74%
[2]
  IC50: > 100 µM

## C[C@H]1Sc2cccnc2[C@@H]1CN (racemic) [Example 15]
[1]; [3]
  activation at 0.1 µM: 24%
[1]; [4]
  activation at 1 µM: 67%
[1]; [5]
  activation at 10 µM: 90%
[2]
  IC50: > 100 µM

## C[C@@H]1Sc2cccnc2[C@@H]1CN (racemic) [Example 16]
[1]; [3]
  activation at 0.1 µM: 6%
[1]; [4]
  activation at 1 µM: 37%
[1]; [5]
  activation at 10 µM: 76%
[2]
  IC50: 68.6 µM

## NC[C@H]1C[C@@H](c2ccccc2)Oc2cccnc21 (racemic) [Example 24]
[1]; [3]
  activation at 0.1 µM: 25%
[1]; [4]
  activation at 1 µM: 71%
[1]; [5]
  activation at 10 µM: 101%
[2]
  IC50: 6.9 µM

## NC[C@@H]1C[C@@H](c2ccccc2)Oc2cccnc21 (racemic) [Example 25]
[1]; [3]
  activation at 0.1 µM: 2%
[1]; [4]
  activation at 1 µM: 21%
[1]; [5]
  activation at 10 µM: 63%
[2]
  IC50: 5.8 µM

## CNCC1CCSc2cccnc21 (racemic) [Example 45, rac-1-(3,4-dihydro-2H-thiopyrano[3,2-b]pyridin-4-yl)-N-methylmethanamine dihydrochloride]
[1]; [3]
  activation at 0.1 µM: 13%
[1]; [4]
  activation at 1 µM: 51%
[1]; [5]
  activation at 10 µM: 77%
[2]
  IC50: > 100 µM

## COc1ccc2c(n1)C(CN)CCC2 (racemic) [Example 88, rac-1-(2-methoxy-5,6,7,8-tetrahydroquinolin-8-yl)methanamine dihydrochloride]
[1]; [3]
  activation at 0.1 µM: 11%
[1]; [4]
  activation at 1 µM: 38%
[1]; [5]
  activation at 10 µM: 65%
[2]
  IC50: > 100 µM

## Cc1ccc2c(n1)C(CN)C1(CC1)O2 (racemic) [Example 90, rac-1-(5′-methyl-3′H-spiro[cyclopropane-1,2′-furo[3,2-b]pyridine]-3′-yl)methanamine dihydrochloride]
[1]; [3]
  activation at 0.1 µM: 54%
[1]; [4]
  activation at 1 µM: 85%
[1]; [5]
  activation at 10 µM: 94%
[2]
  IC50: 71.8 µM

## NC[C@@H]1CCSc2cccnc21 (single isomer, unassigned) [Example 40, dihydrochloride]
[1]; [3]
  activation at 0.1 µM: 25%
[1]; [4]
  activation at 1 µM: 57%
[1]; [5]
  activation at 10 µM: 68%
[2]
  IC50: > 100 µM

## NC[C@H]1CSc2cccnc21 (single isomer, unassigned) [Example 41, dihydrochloride]
[1]; [3]
  activation at 0.1 µM: 12%
[1]; [4]
  activation at 1 µM: 38%
[1]; [5]
  activation at 10 µM: 65%
[2]
  IC50: > 100 µM

## NC[C@@H]1CSc2cccnc21 (single isomer, unassigned) [Example 42, dihydrochloride]
[1]; [3]
  activation at 0.1 µM: 25%
[1]; [4]
  activation at 1 µM: 70%
[1]; [5]
  activation at 10 µM: 90%
[2]
  IC50: > 100 µM

## NC[C@H]1c2ncccc2OC12CC2 (single isomer, unassigned) [Example 97, rel-1-[(3'S)-3′H-spiro[cyclopropane-1,2′-furo[3,2-b]pyridine]-3′-yl]methanamine dihydrochloride]
[1]; [3]
  activation at 0.1 µM: 70%
[1]; [4]
  activation at 1 µM: 101%
[1]; [5]
  activation at 10 µM: 96%
[2]
  IC50: > 100 µM

## C[C@@H]1COc2cccnc2[C@@H]1CN (stereo in doubt) [Example 2, rac-1-[(3S,4S)-3-methyl-3,4-dihydro-2H-pyrano[3,2-b]pyridin-4-yl]methanamine dihydrochloride]
[1]; [3]
  activation at 0.1 µM: 7%
[1]; [4]
  activation at 1 µM: 37%
[1]; [5]
  activation at 10 µM: 75%
[2]
  IC50: > 100 µM

## CC[C@H]1Oc2cccnc2[C@@H]1CN (stereo in doubt) [Example 43, rel-1-[(2R,3S)-2-ethyl-2,3-dihydrofuro[3,2-b]pyridin-3-yl]methanamine dihydrochloride]
[1]; [3]
  activation at 0.1 µM: 0%
[1]; [4]
  activation at 1 µM: 0%
[1]; [5]
  activation at 10 µM: 7%

## [2H][C@]1(C)Oc2cccnc2[C@@H]1CN (stereo in doubt) [Example 57]
[1]; [3]
  activation at 0.1 µM: 32%
[1]; [4]
  activation at 1 µM: 72%
[1]; [5]
  activation at 10 µM: 79%

## [2H][C@@]1(C)Oc2cccnc2[C@H]1CN (stereo in doubt) [Example 94, rel-1-[(2S,3R)-2-methyl(2-^2H)-2,3-dihydrofuro[3,2-b]pyridin-3-yl]methanamine dihydrochloride]
[1]; [3]
  activation at 0.1 µM: 1%
[1]; [4]
  activation at 1 µM: 4%
[1]; [5]
  activation at 10 µM: 28%

## NCC1CSc2cccnc21 (stereo not shown) [Example 10]
[1]; [3]
  activation at 0.1 µM: 18%
[1]; [4]
  activation at 1 µM: 66%
[1]; [5]
  activation at 10 µM: 91%

## Cc1ccc2c(n1)[C@@H](CN)C[C@@H](C)O2 [Example 17]
[1]; [3]
  activation at 0.1 µM: 0%
[1]; [4]
  activation at 1 µM: 4%
[1]; [5]
  activation at 10 µM: 25%

## C[C@@H]1Oc2cccnc2[C@H]1CN [Example 19]
[1]; [3]
  activation at 0.1 µM: 2%
[1]; [4]
  activation at 1 µM: 13%
[1]; [5]
  activation at 10 µM: 51%

## C[C@@H]1Oc2cccnc2[C@@H]1CN [Example 20]
[1]; [3]
  activation at 0.1 µM: 33%
[1]; [4]
  activation at 1 µM: 88%
[1]; [5]
  activation at 10 µM: 107%

## Cc1cnc2c(c1)O[C@H](C)[C@H]2CN [Example 28]
[1]; [3]
  activation at 0.1 µM: 7%
[1]; [4]
  activation at 1 µM: 38%
[1]; [5]
  activation at 10 µM: 71%

## C[C@H]1Oc2ccc(C(F)(F)F)nc2[C@@H]1CN [Example 30]
[1]; [3]
  activation at 0.1 µM: 2%
[1]; [4]
  activation at 1 µM: 18%
[1]; [5]
  activation at 10 µM: 63%

## C[C@H]1Oc2cc(C(F)(F)F)cnc2[C@@H]1CN [Example 31]
[1]; [3]
  activation at 0.1 µM: 1%
[1]; [4]
  activation at 1 µM: 3%
[1]; [5]
  activation at 10 µM: 12%

## C[C@@H]1C[C@H](CN)c2ncc(F)cc2O1 [Example 52]
[1]; [3]
  activation at 0.1 µM: 1%
[1]; [4]
  activation at 1 µM: 8%
[1]; [5]
  activation at 10 µM: 48%

## CC1(C)COc2cccnc2C1CN (stereo not shown) [Example 53]
[1]
  activation at 0.1 µM: 0%
  activation at 1 µM: 3%
  activation at 10 µM: 18%

## C[C@H]1Oc2cccnc2[C@@H]1C(C)(C)N [Example 54]
[1]; [3]
  activation at 0.1 µM: 15%
[1]; [4]
  activation at 1 µM: 63%
[1]; [5]
  activation at 10 µM: 94%

## C[C@H](N)[C@H]1c2ncccc2O[C@@H]1C [Example 55]
[1]; [3]
  TAAR1 agonist activity at each concentration (%): 31%
[1]; [4]
  TAAR1 agonist activity at each concentration (%): 75%
[1]; [5]
  TAAR1 agonist activity at each concentration (%): 87%

## C[C@@H](N)[C@H]1c2ncccc2O[C@@H]1C [Example 56]
[1]; [3]
  TAAR1 agonist activity at each concentration (%): 23%
[1]; [4]
  TAAR1 agonist activity at each concentration (%): 67%
[1]; [5]
  TAAR1 agonist activity at each concentration (%): 82%

## C[C@H]1Oc2c(F)ccnc2[C@@H]1CN [Example 59]
[1]; [3]
  activation at 0.1 µM: 19%
[1]; [4]
  activation at 1 µM: 65%
[1]; [5]
  activation at 10 µM: 84%

## C[C@@H]1C[C@@H](CN)c2ncc(F)cc2O1 [Example 66]
[1]; [3]
  activation at 0.1 µM: 21%
[1]; [4]
  activation at 1 µM: 66%
[1]; [5]
  activation at 10 µM: 82%

## NCC1CCOc2ccc(C(F)(F)F)nc21 (stereo not shown) [Example 67]
[1]; [3]
  activation at 0.1 µM: 1%
[1]; [4]
  activation at 1 µM: 10%
[1]; [5]
  activation at 10 µM: 39%

## NCC1CCNc2cccnc21 (stereo not shown) [Example 68]
[1]; [3]
  activation at 0.1 µM: 3%
[1]; [4]
  activation at 1 µM: 23%
[1]; [5]
  activation at 10 µM: 68%

## NCC1c2ncccc2OCC12CC2 (stereo not shown) [Example 69]
[1]; [3]
  activation at 0.1 µM: 4%
[1]; [4]
  activation at 1 µM: 30%
[1]; [5]
  activation at 10 µM: 62%

## Cc1ccnc2c1OCCC2CN (stereo not shown) [Example 70]
[1]; [3]
  activation at 0.1 µM: 0%
[1]; [4]
  activation at 1 µM: 23%
[1]; [5]
  activation at 10 µM: 57%

## C=CCNC[C@H]1c2ncccc2O[C@@H]1C [Example 71]
[1]; [3]
  activation at 0.1 µM: 0%
[1]; [4]
  activation at 1 µM: 6%
[1]; [5]
  activation at 10 µM: 29%

## CCCNC[C@H]1c2ncccc2O[C@@H]1C [Example 72]
[1]; [3]
  activation at 0.1 µM: 0%
[1]; [4]
  activation at 1 µM: 4%
[1]; [5]
  activation at 10 µM: 23%

## COCCNC[C@H]1c2ncccc2O[C@@H]1C [Example 73]
[1]; [3]
  activation at 0.1 µM: 0%
[1]; [4]
  activation at 1 µM: 9%
[1]; [5]
  activation at 10 µM: 40%

## CCNC[C@H]1c2ncccc2O[C@@H]1C [Example 74]
[1]; [3]
  activation at 0.1 µM: 7%
[1]; [4]
  activation at 1 µM: 46%
[1]; [5]
  activation at 10 µM: 92%

## NCC1CCc2c(Cl)ccnc21 (stereo not shown) [Example 75]
[1]; [3]
  activation at 0.1 µM: 0%
[1]; [4]
  activation at 1 µM: 26%
[1]; [5]
  activation at 10 µM: 75%

## CCOc1ccnc2c1CCC2CN (stereo not shown) [Example 76]
[1]; [3]
  activation at 0.1 µM: 0%
[1]; [4]
  activation at 1 µM: 6%
[1]; [5]
  activation at 10 µM: 33%

## CC1CCC(CN)c2ncccc21 (stereo not shown) [Example 77]
[1]; [3]
  activation at 0.1 µM: 0%
[1]; [4]
  activation at 1 µM: 11%
[1]; [5]
  activation at 10 µM: 47%

## CNCC1CC(C)c2cccnc21 (stereo not shown) [Example 78]
[1]; [3]
  activation at 0.1 µM: 0%
[1]; [4]
  activation at 1 µM: 5%
[1]; [5]
  activation at 10 µM: 27%

## [2H]C([2H])([2H])NC[C@H]1c2ncc(F)cc2O[C@@H]1C [Example 80]
[1]; [3]
  activation at 0.1 µM: 17%
[1]; [4]
  activation at 1 µM: 48%
[1]; [5]
  activation at 10 µM: 62%

## NCC1c2nc(Cl)ccc2OC12CC2 (stereo not shown) [Example 81]
[1]; [3]
  activation at 0.1 µM: 48%
[1]; [4]
  activation at 1 µM: 86%
[1]; [5]
  activation at 10 µM: 95%

## NCC1c2nc(F)ccc2OC12CC2 (stereo not shown) [Example 82]
[1]; [3]
  activation at 0.1 µM: 51%
[1]; [4]
  activation at 1 µM: 92%
[1]; [5]
  activation at 10 µM: 101%
